Assay results reported in patent US12286400B2, “Isofagomine salts, methods of use and formulations” (TAKEDA PHARMACEUTICAL COMPANY LIMITED, priority 2019, dated 2025).

Columns and labels:
[1] = Storage stress-tests at 80° C. in closed vials (CAD-HPLC, 1H-NMR, XRPD); type: physicochemical
Procedure: In order to obtain insight regarding thermal stability of the four crystalline IFG salts, storage stress-tests at 80° C. over several days were conducted. A sample of the free base (SP245-FB-P4), a fumarate sample (SP245-FUM-P5), a D-tartrate sample (SP245-DTA-P7), an L-tartrate sample (SP245-LTA-P5) and an oxalate sample SP245-OXA-P2 were stored at 80° C. for one, three and seven days in closed vials. Samples were tested by CAD and ^1H-NMR.
CAD-HPLC was performed in order to identify the possible adducts or thermal degradation product that could be generated upon storage under the given conditions. All samples were examined by CAD-HPLC; however, no considerable changes were observed between the starting materials and the stored samples. […] In addition, XRPD was carried out for the seven-day stored crystalline salt samples and the XRPD patterns before and after storage were essentially identical.
NMR spectroscopy was conducted on the seven-day stored samples.

[2] = tested on: mutant GCase; conditions: in vitro, fibroblasts from Gaucher patients; cited from earlier work
[3] = Dynamic vapor sorption (DVS); type: physicochemical; conditions: for additional weight gain upon storage at 95% RH: holding at 95% RH; for mass gain until 95% RH: scanning up to 95% RH; for gain in weight when increasing the RH from 0 to 80%: RH 0 to 80%
Excerpt: The behavior of the IFG quinate salt, sample SP245-QNC-P2, was investigated in the presence of variable water vapor pressure using DVS measurement. The result from the DVS test is presented in FIG. 6 and FIG. 6B as the DVS isotherm of sample SP245-QNC-P2: the change of relative sample weight (red curve) and relative humidity (blue curve) as a function of time.
The SP245-QNC-P2 salt prepared in example 1 is hygroscopic at high relative humidity; i.e., above about 80% RH.
The effect of changes in relative humidity on the IFG fumarate sample SP245-FUM-P4 was studied using DVS.
The IFG fumarate salt is hygroscopic at relative humidities above about 80%.
The effect of changes in relative humidity on the IFG oxalate salt sample SP245-OXA-P1 was studied using DVS.
The oxalate salt is hygroscopic above 80% RH.
The effect of changes in relative humidity on the crystalline IFG tartrate salt sample SP245-DTA-P3 was studied using DVS.

[4] = TG-FTIR thermogram; type: physicochemical
Procedure: The obtained crystalline form SP245-QNC-P2 is anhydrous/non-solvated. […] Decomposition is observable above 200° C.
The fumarate salt is a solvent and water-free form. Decomposition is observable above 150° C.

Compound	CAD-HPLC Area % ([1]; 80° C., closed vial, 1 day)	CAD-HPLC Area % ([1]; 80° C., closed vial, 3 days)	CAD-HPLC Area % ([1]; 80° C., closed vial, 7 days)	CAD-HPLC Area % ([1]; starting material)	additional weight gain upon storage at 95% RH ([3]; DVS)	mass gain until 95% RH ([3]; DVS)	relative humidity above which the salt is hygroscopic ([3]; DVS)	gain in weight when increasing the RH from 0 to 80% ([3]; DVS)	weight loss when decreasing the relative humidity from 50 to 0% RH ([3]; DVS, RH 50 to 0%)	gain in weight at 95% RH compared to the first cycle ([3]; DVS, second cycle)	XRPD of sample recovered after DVS measurement [3]	Decomposition observable above [4]	gain in weight when increasing the RH from 0 to 75% ([3]; DVS, RH 0 to 75%)	weight change when decreasing the relative humidity from 50 to 0% ([3]; DVS, RH 50 to 0%)	NMR after storage compared to the non-stressed sample ([1]; 80° C., seven days)	effect on activity of mutant GCase [2]	relative humidity up to which the salt is not hygroscopic ([3]; DVS)	mass change upon increasing the relative humidity from 0% to 70% ([3]; DVS, RH 0% to 70%)
OC[C@H]1CNC[C@@H](O)[C@@H]1O [SP245-FB-P4, (3R,4R,5R)-3,4-dihydroxy-5-hydroxymethylpiperidine, reference compound]	80.2%	80.6%	80.4%	81.1%											several additional NMR signals were observed after storage	increase the activity of mutant GCase		
isofagomine D-(−)-tartrate [SP245-DTA-P3]	85%	85.1%	85.6%	86.3%	70%	32%											70%	No mass change
isofagomine fumarate [SP245-FUM-P4]	86.9%	87.1%	87.8%	87.9%	47%	11%	about 80 % RH	no considerable gain in sample mass	< 1 weight %	5%	correspond to the sample SP245-FUM-P4 used as starting material	above 150 °C						

Further lines, with some results ahead:

CAD-HPLC Area % ([1]; 80° C., closed vial, 1 day)	CAD-HPLC Area % ([1]; 80° C., closed vial, 3 days)	CAD-HPLC Area % ([1]; 80° C., closed vial, 7 days)	CAD-HPLC Area % ([1]; starting material)	additional weight gain upon storage at 95% RH ([3]; DVS)	mass gain until 95% RH ([3]; DVS)	relative humidity above which the salt is hygroscopic ([3]; DVS)	gain in weight when increasing the RH from 0 to 80% ([3]; DVS)	weight loss when decreasing the relative humidity from 50 to 0% RH ([3]; DVS, RH 50 to 0%)	gain in weight at 95% RH compared to the first cycle ([3]; DVS, second cycle)	XRPD of sample recovered after DVS measurement [3]	Decomposition observable above [4]	gain in weight when increasing the RH from 0 to 75% ([3]; DVS, RH 0 to 75%)	weight change when decreasing the relative humidity from 50 to 0% ([3]; DVS, RH 50 to 0%)	Compound	NMR after storage compared to the non-stressed sample ([1]; 80° C., seven days)	effect on activity of mutant GCase [2]	relative humidity up to which the salt is not hygroscopic ([3]; DVS)	mass change upon increasing the relative humidity from 0% to 70% ([3]; DVS, RH 0% to 70%)
83.9%	84.1%	85.3%	84.3%											O=C(O)C(O)C(O)C(=O)O.OC[C@H]1CNC[C@@H](O)[C@@H]1O [SP245-LTA-P5, IFG L-(+)-tartrate]				
83.6%	82.9%	83.6%	85.9%	90%	30%	80 % RH				corresponds to the starting material		no gain in weight	No significant loss in weight	isofagomine oxalate [SP245-OXA-P1]				
				70%	20%	about 80 % RH	no gain in weight			no form change was observed	above 200 °C		No significant loss in weight	isofagomine quinate [SP245-QNC-P2]				
